In patent US20240166635A1, “AMINOHETEROARYL KINASE INHIBITORS” (Anrui Biomedical Technology (Guangzhou) Co.,Ltd., priority 2020, published 2024):

Assays:
Assay type in all cases: biochemical
CDK9/CyclinT1 = CDK9/CyclinT1 (Homo sapiens (Human), UniProt P50750); assay: CDK9/CyclinT1 kinase inhibitory activity (Caliper mobility shift); conditions: read-out: CDK9/Cyclin T1 IC50
CDK1/CyclinB = CDK1/CyclinB (Homo sapiens (Human), UniProt P06493); assay: CDK1/CyclinB kinase inhibitory activity (Caliper mobility shift); conditions: read-out: CDK1/Cyclin B1 IC50
CDK1/CyclinB, sequence (P06493 whole entry): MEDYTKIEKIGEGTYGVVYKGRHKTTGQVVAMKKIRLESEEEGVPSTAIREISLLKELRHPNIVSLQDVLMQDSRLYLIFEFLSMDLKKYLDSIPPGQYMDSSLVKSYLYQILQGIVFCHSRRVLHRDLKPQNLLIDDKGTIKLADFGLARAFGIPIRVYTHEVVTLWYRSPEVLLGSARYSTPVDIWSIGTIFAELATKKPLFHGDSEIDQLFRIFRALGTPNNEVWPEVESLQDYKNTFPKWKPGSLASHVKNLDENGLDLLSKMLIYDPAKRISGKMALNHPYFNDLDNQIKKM
CDK1/CyclinB, sequence (P14635 whole entry partner): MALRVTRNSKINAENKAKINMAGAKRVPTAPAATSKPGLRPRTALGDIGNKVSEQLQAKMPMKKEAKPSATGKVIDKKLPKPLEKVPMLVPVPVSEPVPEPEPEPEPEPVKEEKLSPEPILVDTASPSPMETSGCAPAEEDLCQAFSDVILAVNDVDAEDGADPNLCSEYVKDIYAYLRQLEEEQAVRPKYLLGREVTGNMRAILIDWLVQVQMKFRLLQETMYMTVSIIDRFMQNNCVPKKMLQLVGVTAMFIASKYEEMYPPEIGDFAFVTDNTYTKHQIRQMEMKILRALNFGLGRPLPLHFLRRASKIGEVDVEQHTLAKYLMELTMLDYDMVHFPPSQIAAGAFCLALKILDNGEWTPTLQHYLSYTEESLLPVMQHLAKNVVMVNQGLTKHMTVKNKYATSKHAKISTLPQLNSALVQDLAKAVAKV

CDK2/CyclinE1 = CDK2/CyclinE1 (Homo sapiens (Human), UniProt P24941); assay: CDK2/CyclinE1 kinase inhibitory activity (Caliper mobility shift); conditions: read-out: CDK2/Cyclin El IC50

CDK9/CyclinT1, sequence (P50750 whole entry): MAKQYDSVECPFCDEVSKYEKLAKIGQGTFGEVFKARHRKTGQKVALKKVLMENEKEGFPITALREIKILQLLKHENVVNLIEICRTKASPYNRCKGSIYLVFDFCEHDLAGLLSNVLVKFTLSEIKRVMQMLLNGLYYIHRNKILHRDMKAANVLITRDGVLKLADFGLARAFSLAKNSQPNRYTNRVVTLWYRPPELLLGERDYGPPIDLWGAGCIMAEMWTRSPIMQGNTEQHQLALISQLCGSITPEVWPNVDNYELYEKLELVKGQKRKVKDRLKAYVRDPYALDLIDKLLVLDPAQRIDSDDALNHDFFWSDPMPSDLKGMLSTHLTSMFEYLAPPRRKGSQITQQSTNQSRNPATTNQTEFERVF
CDK9/CyclinT1, sequence (O60563 whole entry partner): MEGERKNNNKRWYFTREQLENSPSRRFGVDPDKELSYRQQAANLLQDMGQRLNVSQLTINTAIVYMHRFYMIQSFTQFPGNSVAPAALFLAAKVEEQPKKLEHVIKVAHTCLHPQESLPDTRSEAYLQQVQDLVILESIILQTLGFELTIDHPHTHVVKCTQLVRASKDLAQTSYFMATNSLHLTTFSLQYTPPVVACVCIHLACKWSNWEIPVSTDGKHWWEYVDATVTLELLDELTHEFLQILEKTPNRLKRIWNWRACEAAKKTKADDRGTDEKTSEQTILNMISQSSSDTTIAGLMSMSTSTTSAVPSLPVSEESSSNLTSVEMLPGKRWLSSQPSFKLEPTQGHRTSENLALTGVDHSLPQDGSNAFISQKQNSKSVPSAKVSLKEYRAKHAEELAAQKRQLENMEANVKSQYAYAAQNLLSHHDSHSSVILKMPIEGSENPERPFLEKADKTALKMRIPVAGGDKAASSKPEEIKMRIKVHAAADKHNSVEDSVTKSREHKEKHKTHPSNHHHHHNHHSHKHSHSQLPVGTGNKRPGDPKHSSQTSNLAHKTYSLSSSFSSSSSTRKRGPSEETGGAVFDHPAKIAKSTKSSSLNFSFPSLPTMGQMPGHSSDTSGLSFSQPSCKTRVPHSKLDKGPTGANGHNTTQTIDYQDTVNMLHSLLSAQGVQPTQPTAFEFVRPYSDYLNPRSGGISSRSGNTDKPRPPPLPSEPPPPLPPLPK

SMILES | IC50 (CDK9/CyclinT1) | IC50 (CDK1/CyclinB) | IC50 (CDK2/CyclinE1)
NS(=O)(=O)N1CCC(Nc2ncc(C(F)(F)F)c(OC3CCCCCC3O)n2)CC1 (single isomer, unassigned) [Example 122a] | 100 to 1000 nM | 100 to 1000 nM | < 10 nM
CS(=O)(=O)N1CCC(Nc2ncc(Br)c(OC3CCCCCC3O)n2)CC1 (single isomer, unassigned) [Example 145a] | ≥ 1000 nM | 100 to 1000 nM | 10 to 100 nM
C[C@]1(O)CCC[C@H]1Oc1nc(NC2CCN(S(C)(=O)=O)CC2)ncc1C#N (relative stereo) [Example 3a, cis-4-((2-hydroxy-2-methylcyclopentyl)oxy)-2-((1-(methylsulfonyl)piperidin-4-yl)amino)pyrimidine-5-carbonitrile] | ≥ 1000 nM | 100 to 1000 nM | 10 to 100 nM
C=Cc1cnc(Nc2ccc(S(N)(=O)=O)cc2)nc1OC1CCCC1O (single isomer, unassigned) [Example 155b] | 100 to 1000 nM | 100 to 1000 nM | < 10 nM
[2H]C([2H])([2H])NS(=O)(=O)c1ccc(Nc2ncc(C(=C)F)c(O[C@@H]3CCC[C@@H]3O)n2)cc1 (single isomer, unassigned) [Example 135b, cis-4-((5-(1-fluorovinyl)-4-((2-hydroxycyclopentyl)oxy)pyrimidin-2-yl)amino)-N-(methyl-d3)benzenesulfonamide] |  | 100 to 1000 nM | 10 to 100 nM
[2H]C([2H])([2H])NS(=O)(=O)c1ccc(Nc2ncc(C(F)(F)F)c(OC3COCCC3O)n2)cc1 (single isomer, unassigned) [Example 117b] | ≥ 1000 nM | 100 to 1000 nM | 10 to 100 nM
CNS(=O)(=O)c1ccc(Nc2ncc(C(F)(F)F)c(O[C@H]3CCOC[C@H]3O)n2)cc1 (single isomer, unassigned) [Example 100b, cis-4-((4-((3-hydroxytetrahydro-2H-pyran-4-yl)oxy)-5-(trifluoromethyl)pyrimidin-2-yl)amino)-N-(methyl-d3)benzenesulfonamide] | 100 to 1000 nM |  | 
C=C(F)c1cnc(Nc2ccc(S(=O)(=O)NC)cc2)nc1O[C@@H]1CCC[C@@H]1O (single isomer, unassigned) [Example 135b, cis-4-((5-(1-fluorovinyl)-4-((2-hydroxycyclopentyl)oxy)pyrimidin-2-yl)amino)-N-(methyl-d3)benzenesulfonamide] | 100 to 1000 nM |  | 
CCc1cnc(Nc2ccc(S(N)(=O)=O)cc2)nc1O[C@@H]1CCC[C@@H]1O (single isomer, unassigned) [Example 133b, cis-4-((5-ethyl-4-((2-hydroxycyclopentyl)oxy)pyrimidin-2-yl)amino)benzenesulfonamide] | 100 to 1000 nM | 100 to 1000 nM | < 10 nM
N#Cc1cnc(Nc2ccc(S(N)(=O)=O)cc2)nc1N1CCC[C@@H](CO)C1 [Example 79] | 100 to 1000 nM | 100 to 1000 nM | 10 to 100 nM
NS(=O)(=O)c1ccc(Nc2ncc(Cl)c(OC3CCCC3O)n2)cc1 (single isomer, unassigned) [Example 136b] | 100 to 1000 nM | 10 to 100 nM | < 10 nM
N#Cc1cnc(Nc2ccc(S(N)(=O)=O)cc2)nc1N1CCCC(c2ccccc2)C1 (racemic) [Example 84] |  | 10 to 100 nM | 10 to 100 nM
CC1(NS(=O)(=O)c2ccc(Nc3ncc(Br)c(O[C@@H]4CCC[C@@H]4O)n3)cc2)COC1 (single isomer, unassigned) [Example 131b, cis-4-((5-bromo-4-((2-hydroxycyclopentyl)oxy)pyrimidin-2-yl)amino)-N-(3-methyloxetan-3-yl)benzenesulfonamide] | 100 to 1000 nM | 100 to 1000 nM | < 10 nM
N#Cc1cnc(Nc2ccc(S(N)(=O)=O)cc2)nc1OCC1CCCC1O (single isomer, unassigned) [Example 19a] | 100 to 1000 nM | 10 to 100 nM | < 10 nM
[2H]C([2H])([2H])NS(=O)(=O)c1ccc(Nc2ncc(C#N)c(OC3CCCOCC3)n2)cc1 (single isomer, unassigned) [Example 33b] | ≥ 1000 nM | 100 to 1000 nM | < 10 nM
N#Cc1cnc(Nc2ccc(S(N)(=O)=O)cc2)nc1OCC1CCCC1O (single isomer, unassigned) [Example 19b] | 100 to 1000 nM | 10 to 100 nM | < 10 nM
C[C@H]1CCCCN1c1nc(Nc2ccc(S(N)(=O)=O)cc2)ncc1F [Example 88] |  | 10 to 100 nM | < 10 nM
CO[C@H]1CCCN(c2nc(Nc3ccc(S(N)(=O)=O)cc3)ncc2C#N)C1 [Example 80] |  | 100 to 1000 nM | 10 to 100 nM
[2H]C([2H])([2H])NS(=O)(=O)c1ccc(Nc2ncc(C(F)(F)F)c(O[C@H]3CCOC[C@H]3O)n2)c(F)c1 (single isomer, unassigned) [Example 101b, cis-3-fluoro-4-((4-((3-hydroxytetrahydro-2H-pyran-4-yl)oxy)-5-(trifluoromethyl)pyrimidin-2-yl)amino)-N-(methyl-d3)benzenesulfonamide] |  |  | 10 to 100 nM
[2H]C([2H])([2H])NS(=O)(=O)c1ccc(Nc2ncc(C(F)(F)F)c(O[C@H]3CCOC[C@H]3O)n2)cc1 (single isomer, unassigned) [Example 100b, cis-4-((4-((3-hydroxytetrahydro-2H-pyran-4-yl)oxy)-5-(trifluoromethyl)pyrimidin-2-yl)amino)-N-(methyl-d3)benzenesulfonamide] |  | 100 to 1000 nM | 10 to 100 nM
N#Cc1cnc(Nc2ccc(S(N)(=O)=O)cc2)nc1OCC1(O)CCCCC1 [Example 16] |  | 100 to 1000 nM | 10 to 100 nM

Continued, values first:

IC50 (CDK9/CyclinT1) | IC50 (CDK1/CyclinB) | IC50 (CDK2/CyclinE1) | SMILES
100 to 1000 nM | 10 to 100 nM | < 10 nM | NS(=O)(=O)c1ccc(Nc2ncc(C(F)(F)F)c(O[C@@H]3CCC[C@@H]3O)n2)cc1 (single isomer, unassigned) [Example 99b, cis-4-((4-((2-hydroxycyclopentyl)oxy)-5-(trifluoromethyl)pyrimidin-2-yl)amino)benzenesulfonamide]
≥ 1000 nM | 100 to 1000 nM | 10 to 100 nM | Cc1cnc(Nc2ccc(S(=O)(=O)NC3CC3)cc2)nc1OC1CCCC1O (single isomer, unassigned) [Example 146b]
≥ 1000 nM | 100 to 1000 nM | 10 to 100 nM | CC(C)NS(=O)(=O)c1ccc(Nc2ncc(C#N)c(OC3CCCCC3O)n2)cc1 (single isomer, unassigned) [Example 30b]
10 to 100 nM | 10 to 100 nM | < 10 nM | C[C@@H]1CC[C@H](O)CN1c1nc(Nc2ccc(S(N)(=O)=O)cc2)ncc1C#N [Example 77]
100 to 1000 nM | 100 to 1000 nM | < 10 nM | N#Cc1cnc(Nc2ccc(S(N)(=O)=O)cc2)nc1OC1CCCC(O)C1 (single isomer, unassigned) [Example 21a]
100 to 1000 nM | 10 to 100 nM | 10 to 100 nM | O=S(=O)(NC1CCOCC1)c1ccc(Nc2ncc(Cl)c(O[C@@H]3CCC[C@@H]3O)n2)cc1 (single isomer, unassigned) [Example 130b, cis-4-((5-chloro-4-((2-hydroxycyclopentyl)oxy)pyrimidin-2-yl)amino)-N-(tetrahydro-2H-pyran-4-yl)benzenesulfonamide]
100 to 1000 nM | 10 to 100 nM | < 10 nM | CC(C)NS(=O)(=O)c1ccc(Nc2ncc(C(F)(F)F)c(OC3CCCC3O)n2)cc1 (single isomer, unassigned) [Example 106b]
100 to 1000 nM | 100 to 1000 nM | 10 to 100 nM | CNS(=O)(=O)N1CCC(Nc2ncc(C(F)(F)F)c(OC3CCCCCC3O)n2)CC1 (single isomer, unassigned) [Example 123a]
10 to 100 nM | < 10 nM | < 10 nM | [2H]C([2H])([2H])NS(=O)(=O)c1ccc(Nc2ncc(CC)c(OC3CCOCC3(C)O)n2)cc1 (single isomer, unassigned) [Example 152a]
≥ 1000 nM | 100 to 1000 nM | 10 to 100 nM | Cn1cc(S(=O)(=O)N2CCC(Nc3ncc(Br)c(OC4CCCCC4O)n3)CC2)cn1 (single isomer, unassigned) [Example 144a]
≥ 1000 nM | 100 to 1000 nM | 10 to 100 nM | CC1(O)CCCC1Oc1nc(NC2CCN(S(=O)(=O)CC3CC3)CC2)ncc1C#N (single isomer, unassigned) [Example 38b]
≥ 1000 nM | 100 to 1000 nM | 10 to 100 nM | [2H]C([2H])([2H])NS(=O)(=O)c1ccc(Nc2ncc(C)c(OC3CCCC3O)n2)cc1 (single isomer, unassigned) [Example 148b]
100 to 1000 nM | 10 to 100 nM | < 10 nM | CC(C)NS(=O)(=O)c1ccc(Nc2ncc(C#N)c(OC3CCCC3)n2)cc1 [Example 28]
≥ 1000 nM | 100 to 1000 nM | 10 to 100 nM | N#Cc1cnc(Nc2ccc(S(=O)(=O)NC3CC(F)C3)cc2)nc1OC1CCCCC1O (single isomer, unassigned) [Example 31b]
≥ 1000 nM | 100 to 1000 nM | 10 to 100 nM | CS(=O)(=O)N1CCC(Nc2ncc(C(F)(F)F)c(OC3CCCCC3O)n2)CC1 (single isomer, unassigned) [Example 120b]
 | ≥ 1000 nM | 100 to 1000 nM | [2H]C([2H])([2H])NS(=O)(=O)c1ccc(Nc2ncc(CC)c(OC3COCC3(C)O)n2)cc1 (single isomer, unassigned) [Example 150b]
 | 10 to 100 nM | < 10 nM | C[C@@H]1CCCCN1c1nc(Nc2ccc(S(N)(=O)=O)cc2)ncc1F [Example 87]
100 to 1000 nM |  |  | CC1(COc2nc(NC3CCN(S(=O)(=O)c4cn[nH]c4)CC3)ncc2C#N)CCCC1 [Example 8, 2-((1-((1H-pyrazol-4-yl)sulfonyl)piperidin-4-yl)amino)-4-((1-methylcyclopentyl)methoxy)pyrimidine-5-carbonitrile]
 | 10 to 100 nM | 10 to 100 nM | N#Cc1cnc(Nc2ccc(S(N)(=O)=O)cc2)nc1OCC1CCCCC1 [Example 13]
 | 100 to 1000 nM | 10 to 100 nM | CS(=N)(=O)c1ccc(Nc2ncc(C#N)c(N3CCCCC3)n2)cc1 (stereo not drawn) [Example 90]
